The record followed here is US8772300B2, “Phenyl or pyridinyl-ethynyl derivatives” (Hoffmann-La Roche Inc., priority 2011, dated 2014).

The target of the test is T1, human mGlu5a receptor (Homo sapiens, UniProt P41594).
T1 construct: expressed in transfected cells
As to the kind of experiment: Intracellular Ca2+ mobilization assay (mGlu5 PAM). The class given is cell-based. The settings on record: for Emax: HEK293, maximal response in % of the maximal stimulatory effect obtained with saturating concentrations of L-glutamate, read-out: Eff. (%); for EC50: HEK-293 cells stably transfected with human mGlu5a receptor, L-glutamate added at EC20 (typically around 80 μM) after 10-30 min pre-incubation with test compound, read-out: EC50 (nM) mGlu5PAM. The procedure:
A monoclonal HEK-293 cell line stably transfected with a cDNA encoding for the human mGlu5a receptor was generated; for the work with mGlu5 Positive Allosteric Modulators (PAMs), a cell line with low receptor expression levels and low constitutive receptor activity was selected to allow the differentiation of agonistic versus PAM activity. Cells were cultured according to standard protocols (Freshney, 2000) in Dulbecco's Modified Eagle Medium with high glucose supplemented with 1 mM glutamine, 10% (vol/vol) heat-inactivated bovine calf serum, Penicillin/Streptomycin, 50 μg/ml hygromycin and 15 μg/ml blasticidin (all cell culture reagents and antibiotics from Invitrogen, Basel, Switzerland).
About 24 hrs before an experiment, 5×10^4 cells/well were seeded in poly-D-lysine coated, black/clear-bottomed 96-well plates. The cells were loaded with 2.5 μM Fluo-4AM in loading buffer (1×HBSS, 20 mM HEPES) for 1 hr at 37° C. and washed five times with loading buffer. The cells were transferred into a Functional Drug Screening System 7000 (Hamamatsu, Paris, France), and 11 half logarithmic serial dilutions of test compound at 37° C. were added and the cells were incubated for 10-30 min with on-line recording of fluorescence. Following this pre-incubation step, the agonist L-glutamate was added to the cells at a concentration corresponding to EC20 (typically around 80 μM) with on-line recording of fluorescence; in order to account for day-to-day variations in the responsiveness of cells, the EC20 of glutamate was determined immediately ahead of each experiment by recording of a full dose-response curve of glutamate.
Responses were measured as peak increase in fluorescence minus basal (i.e. fluorescence without addition of L-glutamate), normalized to the maximal stimulatory effect obtained with saturating concentrations of L-glutamate. Graphs were plotted with the % maximal stimulatory using XLfit, a curve fitting program that iteratively plots the data using Levenburg Marquardt algorithm. The single site competition analysis equation used was y=A+((B−A)/(1+((x/C)D))), where y is the % maximal stimulatory effect, A is the minimum y, B is the maximum y, C is the EC50, x is the log 10 of the concentration of the competing compound and D is the slope of the curve (the Hill Coefficient). From these curves the EC50 (concentration at which half maximal stimulation was achieved), the Hill coefficient as well as the maximal response in % of the maximal stimulatory effect obtained with saturating concentrations of L-glutamate were calculated.
A depression of the signal observed after addition of the EC20 concentration of L-glutamate was indicative of an inhibitory activity of the test compound.

Each structure is given as a SMILES string.

T1 sequence (P41594 21-1180 isoform P41594-2 limits assumed): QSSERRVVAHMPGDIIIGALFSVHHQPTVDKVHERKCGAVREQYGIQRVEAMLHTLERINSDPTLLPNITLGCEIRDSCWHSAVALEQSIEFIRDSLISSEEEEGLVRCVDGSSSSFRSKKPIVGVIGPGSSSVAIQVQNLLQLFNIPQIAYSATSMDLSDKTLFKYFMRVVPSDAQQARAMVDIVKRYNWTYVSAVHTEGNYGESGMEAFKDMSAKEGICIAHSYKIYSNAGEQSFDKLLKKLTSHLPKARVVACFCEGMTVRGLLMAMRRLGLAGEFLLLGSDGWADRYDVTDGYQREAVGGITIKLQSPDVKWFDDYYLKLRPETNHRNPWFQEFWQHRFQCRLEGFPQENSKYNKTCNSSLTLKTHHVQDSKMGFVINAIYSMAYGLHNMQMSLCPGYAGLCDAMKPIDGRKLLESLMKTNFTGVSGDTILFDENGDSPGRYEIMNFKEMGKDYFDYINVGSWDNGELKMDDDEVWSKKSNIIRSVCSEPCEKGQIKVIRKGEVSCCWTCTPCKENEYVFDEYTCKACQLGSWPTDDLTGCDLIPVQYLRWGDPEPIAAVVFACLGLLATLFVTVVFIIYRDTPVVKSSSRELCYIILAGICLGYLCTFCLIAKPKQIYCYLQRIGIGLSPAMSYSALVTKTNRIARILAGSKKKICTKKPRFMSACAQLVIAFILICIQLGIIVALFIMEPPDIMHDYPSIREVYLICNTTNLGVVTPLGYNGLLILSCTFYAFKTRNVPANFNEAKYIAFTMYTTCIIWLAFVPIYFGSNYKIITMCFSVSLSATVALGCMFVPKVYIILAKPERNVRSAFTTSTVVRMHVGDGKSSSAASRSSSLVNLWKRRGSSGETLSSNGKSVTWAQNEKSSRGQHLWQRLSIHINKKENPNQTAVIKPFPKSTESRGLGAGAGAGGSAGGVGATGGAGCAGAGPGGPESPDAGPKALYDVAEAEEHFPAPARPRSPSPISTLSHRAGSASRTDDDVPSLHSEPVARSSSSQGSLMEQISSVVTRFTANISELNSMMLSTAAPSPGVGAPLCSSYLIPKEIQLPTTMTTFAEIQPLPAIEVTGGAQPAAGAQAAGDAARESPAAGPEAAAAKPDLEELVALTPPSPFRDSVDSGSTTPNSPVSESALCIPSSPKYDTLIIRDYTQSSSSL

In the case of `CN(C(=O)c1ncc(C#Cc2cccc(F)c2)cc1F)C1(C)CC1` [Example 42, 3-Fluoro-5-(3-fluoro-phenylethynyl)-pyridine-2-carboxylic Acid methyl-(1-methyl-cyclopropyl)-amide], the concentration for a half-maximal effect (EC50) amounted to 33 nM. Under “HEK-293 human mGlu5a cells”, the Emax came to 35%.
For `CC1(C)CC(O)CCN1C(=O)c1ccc(C#Cc2ccccc2)cn1` (racemic) [Example 38, (RS)-(4-Hydroxy-2,2-dimethyl-piperidin-1-yl)-(5-phenylethynyl-pyridin-2-yl)-methanone] the same measures were 28 nM and 57%.
For `CN(C(=O)c1ncc(C#Cc2cncc(Cl)c2)cc1F)C(C)(C)C` [Example 24, 5-(5-Chloro-pyridin-3-ylethynyl)-3-fluoro-pyridine-2-carboxylic Acid tert-butyl-methyl-amide] the same measures were 11 nM and 29%.
For `CN(C(=O)c1ncc(C#Cc2cccc(F)c2)cc1F)C(C)(C)C` [Example 21, 3-Fluoro-5-(3-fluoro-phenylethynyl)-pyridine-2-carboxylic Acid tert-butyl-methyl-amide] the same measures were 18 nM and 54%.
Consider `CC(C)(NC(=O)c1ccc(C#Cc2ccnc(Cl)c2)cn1)C(F)(F)F` [Example 54, 5-(2-Chloro-pyridin-4-ylethynyl)-pyridine-2-carboxylic Acid (2,2,2-trifluoro-1,1-dimethyl-ethyl)-amide], for which the EC50 stood at 37 nM. For the same compound, the Emax (HEK-293 human mGlu5a cells) came out at 80%.
For `CC(C)(C)NC(=O)c1ncc(C#Cc2cccc(F)c2)cn1` [Example 10, 5-(3-Fluoro-phenylethynyl)-pyrimidine-2-carboxylic Acid tert-butylamide] the same measures were 36 nM and 81%.
For `CN(C(=O)c1ncc(C#Cc2ccccc2)cc1F)C1(C)COC1` [Example 50, 3-Fluoro-5-phenylethynyl-pyridine-2-carboxylic Acid methyl-(3-methyl-oxetan-3-yl)-amide] the same measures were 40 nM and 67%.
The corresponding values for `CN(C(=O)c1ccc(C#Cc2cccc(Cl)c2)cn1)C1(C(F)(F)F)CC1` [Example 33, 5-(3-Chloro-phenylethynyl)-pyridine-2-carboxylic Acid methyl-(1-trifluoromethyl-cyclopropyl)-amide] are 33 nM and 37%.
On to `CN(C(=O)c1ccc(C#Cc2ccc(F)cc2)cn1)C1(C)CC1` [Example 32, 5-(4-Fluoro-phenylethynyl)-pyridine-2-carboxylic Acid methyl-(1-methyl-cyclopropyl)-amide], for which the EC50 came out at 24 nM. Besides, the Emax (HEK-293 human mGlu5a cells) amounted to 59%.
For `CC1(C)CC(O)CCN1C(=O)c1ncc(C#Cc2cccc(F)c2)cn1` (racemic) [Example 65, (RS)-[5-(3-Fluoro-phenylethynyl)-pyrimidin-2-yl]-(4-hydroxy-2,2-dimethyl-piperidin-1-yl)-methanone] the same measures were 149 nM and 55%.
For `CC1(C)CCCN(C(=O)c2ncc(C#Cc3ccccc3)cn2)C1` [Example 46, (3,3-Dimethyl-piperidin-1-yl)-(5-phenylethynyl-pyrimidin-2-yl)-methanone], the EC50 is 50 nM. Also, the Emax (HEK-293 human mGlu5a cells) came out at 59%.
The corresponding values for `CC1(C)CN(C(=O)c2ncc(C#Cc3cccc(F)c3)cn2)CCC1O` (racemic) [Example 49, (RS)-[5-(3-Fluoro-phenylethynyl)-pyrimidin-2-yl]-(4-hydroxy-3,3-dimethyl-piperidin-1-yl)-methanone] are 98 nM and 48%.
Turning to `CN(C(=O)c1ccc(C#Cc2cccc(F)c2)cn1)C1(C)COC1` [Example 27, 5-(3-Fluoro-phenylethynyl)-pyridine-2-carboxylic Acid methyl-(3-methyl-oxetan-3-yl)-amide], the 50% effective concentration (EC50) was 24 nM. In addition, where the note is “HEK-293 human mGlu5a cells”, the Emax came to 53%.
On to `CN(C(=O)c1ncc(C#Cc2ccc(F)cc2)cn1)C(C)(C)C` [Example 11, 5-(4-Fluoro-phenylethynyl)-pyrimidine-2-carboxylic Acid tert-butyl-methyl-amide], for which the EC50 stood at 34 nM. Further, the Emax (HEK-293 human mGlu5a cells) turned out to be 69%.
For `Cc1cc(C#Cc2cccc(F)c2)cnc1C(=O)N(C)C(C)(C)C` [Example 17, 5-(3-Fluoro-phenylethynyl)-3-methyl-pyridine-2-carboxylic Acid tert-butyl-methyl-amide] the same measures were 37 nM and 49%.
The corresponding values for `CN(C(=O)c1ncc(C#Cc2cc(F)ccc2F)cn1)C(C)(C)C` [Example 15, 5-(2,5-Difluoro-phenylethynyl)-pyrimidine-2-carboxylic Acid tert-butyl-methyl-amide] are 35 nM and 32%.
`CC(NC(=O)c1ccc(C#Cc2ccnc(Cl)c2)cn1)C(F)(F)F` (single isomer, unassigned) [Example 60, (S) or (R)-5-(2-Chloro-pyridin-4-ylethynyl)-pyridine-2-carboxylic Acid (2,2,2-trifluoro-1-methyl-ethyl)-amide]: the EC50 was 69 nM. Further, the “Eff. (%)” value (maximal response in % of the maximal stimulatory effect obtained with saturating concentrations of L-glutamate, HEK-293 human mGlu5a cells) came out at 60%.
Take `CN(C(=O)c1ccc(C#Cc2ccc(F)cc2)cn1)C1(C)COC1` [Example 28, 5-(4-Fluoro-phenylethynyl)-pyridine-2-carboxylic Acid methyl-(3-methyl-oxetan-3-yl)-amide]: the half-maximal effective concentration (EC50) worked out at 37 nM. Further, for the setting “HEK-293 human mGlu5a cells”, the Emax is 68%.
`Cc1cc(C#Cc2cc(F)ccc2F)cnc1C(=O)N(C)C(C)(C)C` [Example 19, 5-(2,5-Difluoro-phenylethynyl)-3-methyl-pyridine-2-carboxylic Acid tert-butyl-methyl-amide]: the half-maximal effective concentration (EC50) was 33 nM. In addition, the Emax (HEK-293 human mGlu5a cells) came to 29%.
As for `CC1(C)CN(C(=O)c2ncc(C#Cc3ccccc3)cn2)CCC1O` (racemic) [Example 48, (RS)-(4-Hydroxy-3,3-dimethyl-piperidin-1-yl)-(5-phenylethynyl-pyrimidin-2-yl)-methanone], the EC50 is 49 nM. For the same compound, the Emax (HEK-293 human mGlu5a cells) came out at 55%.
For the compound `CC(C)(C)NC(=O)c1ccc(C#Cc2ccccc2)cn1` [Example 1, 5-Phenylethynyl-pyridine-2-carboxylic Acid tert-butylamide], the concentration for a half-maximal effect (EC50) was 49 nM. The Emax (HEK-293 human mGlu5a cells) is 115%.
The corresponding values for `Cc1cccc(C#Cc2ccc(C(=O)N(C)C3(C(F)(F)F)CC3)nc2)c1` [Example 34, 5-m-Tolylethynyl-pyridine-2-carboxylic Acid methyl-(1-trifluoromethyl-cyclopropyl)-amide] are 27 nM and 46%.
The corresponding values for `CC1(C)CN(C(=O)c2ccc(C#Cc3cc(F)ccc3F)cn2)CCO1` [Example 36, [5-(2,5-Difluoro-phenylethynyl)-pyridin-2-yl]-(2,2-dimethyl-morpholin-4-yl)-methanone] are 56 nM and 44%.
With `CN(C(=O)c1ncc(C#Cc2cc(F)ccc2F)cc1F)C(C)(C)C` [Example 23, 5-(2,5-Difluoro-phenylethynyl)-3-fluoro-pyridine-2-carboxylic Acid tert-butyl-methyl-amide], the concentration giving a half-maximal response (EC50) stood at 10 nM. In addition, the Emax (HEK-293 human mGlu5a cells) came to 38%.
In the case of `CN(C(=O)c1ncc(C#Cc2cncc(Cl)c2)cn1)C(C)(C)C` [Example 16, 5-(5-Chloro-pyridin-3-ylethynyl)-pyrimidine-2-carboxylic Acid tert-butyl-methyl-amide], the EC50 was 58 nM. Further, the Emax (HEK-293 human mGlu5a cells) was determined as 27%.
The corresponding values for `CC(C)(C)NC(=O)c1ncc(C#Cc2cccc(Cl)c2)cn1` [Example 14, 5-(3-Chloro-phenylethynyl)-pyrimidine-2-carboxylic Acid tert-butylamide] are 111 nM and 95%.
As for `CC1(C)CN(C(=O)c2ccc(C#Cc3ccccc3)cn2)CCC1O` (racemic) [Example 39, (RS)-(4-Hydroxy-3,3-dimethyl-piperidin-1-yl)-(5-phenylethynyl-pyridin-2-yl)-methanone], the concentration for a half-maximal effect (EC50) is 35 nM. Besides, the Emax (HEK-293 human mGlu5a cells) worked out at 58%.
The corresponding values for `CN(C(=O)c1ccc(C#Cc2cc(F)ccc2F)cn1)C(C)(C)C` [Example 5, 5-(2,5-Difluoro-phenylethynyl)-pyridine-2-carboxylic Acid tert-butyl-methyl-amide] are 12 nM and 42%.

A word on the EC50: it is the concentration that produces a half-maximal response.
